Results published in publication PMC5931191, “Reversible stapling of unprotected peptides via chemoselective methionine bis-alkylation/dealkylation” (Chemical Science, 2018).
“Also recorded” adds a separate entry of the source. Where a SMILES comes first, the peptide text is derived from it.

How the values were obtained:
[1] = system: trypsin; assay: In vitro trypsin digestion assay; conditions: peptide 1 mM in PBS pH 7.4, 100 µL + 1 µL trypsin (1 mg/mL) (1%), 37 °C, different time intervals, LC/MS peak detection at 254 nm; compared with linear peptide 1; Fig. 3C
Method: LC-MS spectra were carried out on SHIMAZU LC-MS 8030 (ESI-MS) in positive ion mode.
trypsin (1 mg/mL) was added and incubated at 37°C. At different time interval, the solution was mixed with 12%
trichloroacetic acid (H2O/CH3CN: 2:1) to inactivate the trypsin.
the peptide remaining was examined by LC/MS with a grace smart C18 250× 4.6mm column, using a 4% per minute
linear gradient from 10% to 70% acetonitrile over 15min. The amount of starting material left in each sample was

[2] = system: U2OS cells; assay: LDH release assay
Method: concentration of 10 μM in FBS free medium and incubated with the cells for 4 hours at 37°C. After that, the medium
was removed and the cells were gently washed 2 times with PBS and then fixed with 4% paraformaldehyde (Alfa
Aesar, MA) in PBS for 10 minutes. The cells were again washed 2 times with PBS and stained with 1μg/ml 4', 6-
diamidino-2-phenylindole (DAPI) (Invitrogen, CA) in PBS for 5 minutes. Images of peptide localization in cells were
taken on PerkinElmer confocal microscopy under the same parameters and processed using Volocity software package
LDH release was performed by using Cytotoxicity LDH Assay Kit-WST®. Briefly, ~10000 cells suspension was added
to each well of the 96 well plate and allowed to grow overnight. The cells were then incubated with the fresh medium
containing serial dilution of peptides at 37 °C for 4h. Lysis Buffer was added as positive control at 37 °C for 30min.
After that, 50μL of the incubation medium were taken out to another 96 well plate followed the addition of 50μL Working
Solution and incubated for 30min at room temperature. Then 25μL Stop Solution was added into the wells. The
absorbance at 490 nm was measured by a microplate reader (Perkin Elmer, Envision, 2104 Multilabel Reader). The
LDH release activity was calculated by (LDH% samples-LDH% blank) / (LDH% positive control -LDH% blank).

[3] = biological target: T1, Recombinant Human Caspase-3 protein (Homo sapiens, UniProt P42574); assay: In vitro caspase-3 AMC release assay; format: biochemical; conditions: peptide 5 µM, caspase-3 0.4 ng/µL, 1 h, read every 5 min, Ex 340 nm / Em 450 nm, triplicates; Fig. 5C
T1 construct: purchased RnD SYSTEMS
T1 sequence (P42574 29-175 limits assumed): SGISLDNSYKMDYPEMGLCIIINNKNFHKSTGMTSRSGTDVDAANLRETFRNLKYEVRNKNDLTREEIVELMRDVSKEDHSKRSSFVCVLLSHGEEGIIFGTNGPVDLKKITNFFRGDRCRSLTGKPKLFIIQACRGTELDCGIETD
T1 sequence (P42574 176-277 limits assumed): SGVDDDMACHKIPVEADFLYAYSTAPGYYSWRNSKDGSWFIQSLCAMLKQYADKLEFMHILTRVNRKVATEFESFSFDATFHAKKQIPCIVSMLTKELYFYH
Method: 8. AMC release Assays.
In vitro Caspase-3 assay:
(§1) AMC conjugated peptides 16-19 (50 μL, 5μM)
All experiments were performed in triplicates with […]
blank control) to induce the activity of caspase-3. […]
(§2) collected by centrifugation.
(§3) Besides, an induced well pretreated with the caspase pan-

[4] = Dealkylation of cyclic peptides with 2-mercaptopyridine (regeneration of linear peptide); format: physicochemical; conditions: chemical stability under reductive conditions; 2-mercaptopyridine (10 equiv., 10 mM) in PBS pH 7.4, 37 °C, different time points, HPLC / LC-MS; Fig. 3A, B
Method: in linear gradient mixtures.
1. Preparation of alkylated sulfonium peptides[1]
The alkylated reagent (1.2 equiv)
Then the solution was purified by reversed […]
peptide can be gradually regenerated to the linear peptide.
To 100 µL of each solution 1 µL […]
linear gradient from 10% to 70% acetonitrile over 15min. […]
quantified by LC/MS-based peak detection at 254nm.
4. Flow Cytometry Analysis
T47D cells were seeded in
37°C), washed with PBS, and resuspended in PBS. […]
cytometer (Becton Dickinson) and CellQuest Pro (or CFlow plus).

[5] = system: HeLa cells; assay: Flow cytometry cellular uptake in HeLa cells; format: cell-based
[6] = system: U2OS cells; assay: Flow cytometry cellular uptake in U2OS cells; format: cell-based; conditions: FITC-labelled peptides 10 µM, 4 h, 37 °C, FACS, Fig. S4 (legend not available)
[7] = system: U2OS cells; assay: Confocal microscopy of AMC release in U2OS cells; format: cell-based
Method: (§4) experiments were performed in triplicates with consistent results.
(§5) 100μl U2OS cells were cultured in 96 well plate (~5000 cells / well) overnight, then 0.1 μl of ABT-737 stock solution (10 mM, 1 h) was added into half of the wells to induce apoptosis. After that, peptide 16, 17i, 18i, and 19 stock solution (final concentration of 5 µM) were added into the cells. At different time points, the fluorescence of the wells treated […]
(§6) difference in fluorescence yields between ABT-737 treated and untreated cells was plotted as a function of time to represent the caspase-3 activities in live cells.
(§7) U2OS cells were cultured in 24 well plates with imaging dishes (50000 cells/well) and then treated with peptide 17i, 18i and 19 (100µM) in FBS free medium for 4h. Then the medium was removed and the cells were cultured with a fresh medium containing 10mM GSH for 8h, 16h, or 24h. The release efficiency of AMC was monitored using fluorescence microscopy with pseudo-colored in blue as described.
(§8) Table S1. Conversion of peptide 1 to peptide 1a in different solvents at different time intervals.
(§9) Table S2. Peptide sequences and observed masses following HPLC purification. Calculated and Found m/z are presented as [M+H] + / [M/2+H] +/ [M/3+H] +/ [M/4+H] +.
(§10) Peptide Sequence Calculated mass Observed mass
(§11) (1 picture or pasted object on this page, not shown here)

[8] = system: U2OS cells; assay: AMC release (caspase-3) assay in live U2OS cells; format: cell-based; conditions: ABT-737 10 µM 1 h, peptide 5 µM, after incubation for 12 hours, Fig. S9
Method: as §4, §5, §6, §7, §8, §9, §10, §11

[9] = biological target: T2, caspase-3 in U2OS cell lysates (Homo sapiens, UniProt P42574); assay: AMC release assay in U2OS cell lysate; format: biochemical; conditions: peptide 5 µM, 24 h, Fig. 5D
T2 construct: endogenous in cells; host or cells: U2OS cells, ABT-737-induced, lysed
T2 sequence (P42574 29-175 limits assumed): T1 sequence (P42574 29-175 limits assumed)
T2 sequence (P42574 176-277 limits assumed): T1 sequence (P42574 176-277 limits assumed)
Method: 8. AMC release Assays. […]
as §1
All experiments were performed in triplicates with
blank control) to induce the activity of caspase-3.
as §2, §3

In the case of `CC(=O)N[C@@H](Cc1c[nH]c2ccccc12)C(=O)N[C@H]1CC[S+](C)Cc2ccc(cc2)-c2ccc(cc2)C[S+](C)CC[C@@H](C(N)=O)NC(=O)[C@H](CC(=O)O)NC(=O)CNC(=O)[C@H](CCCNC(=N)N)NC1=O` (some centres unmarked) [1i], the “trypsin stability (peptide remaining)” value [1] is reported as “significantly enhanced the trypsin stability”.

For `CCCC[C@@H]1NC(=O)[C@H](CC(=O)O)NC(=O)[C@@H](NC(C)=O)CSCc2ccc(cc2)-c2ccc(cc2)CSC[C@H](C(=O)N[C@@H](CC(=O)O)C(=O)Nc2ccc3c(C)cc(=O)oc3c2)NC1=O` [18i] (HELM PEPTIDE1{[ac].C.D.[Nle].[dC].D.[Cc1cc(=O)oc2cc(N[*:1])ccc12]}|CHEM1{[c1cc(-c2ccc(C[*:2])cc2)ccc1C[*:1]]}$PEPTIDE1,CHEM1,2:R3-1:R1|PEPTIDE1,CHEM1,5:R3-1:R2$$$V2.0), the “membrane toxicity (LDH release)” value ([2]; 160 µM, 4 h, 10% serum, Fig. S8) was “negligible membrane toxicity”.

For `CCCC[C@H](NC(=O)[C@H](CC(=O)O)NC(=O)[C@H](CCSC)NC(C)=O)C(=O)N[C@@H](CCSC)C(=O)N[C@@H](CC(=O)O)C(=O)Nc1ccc2c(C)cc(=O)oc2c1` [compound 17] (HELM PEPTIDE1{[ac].M.D.[Nle].M.D.[Cc1cc(=O)oc2cc(N[*:1])ccc12]}$$$$V2.0), the “AMC release / susceptibility to caspase-3 in vitro” value [3] was “quick degradation”.

For `CCCC[C@H](NC(=O)[C@H](CC(=O)O)NC(=O)[C@H](CCCNC(=N)N)NC(=O)[C@H](CCCNC(=N)N)NC(=O)[C@H](CCCNC(=N)N)NC(=O)[C@H](CCCNC(=N)N)NC(=O)[C@H](CCCNC(=N)N)NC(=O)[C@H](CCCNC(=N)N)NC(=O)[C@H](CCCNC(=N)N)NC(=O)[C@H](CCCNC(=N)N)NC(=O)[C@H](CCCNC(=N)N)NC(C)=O)C(=O)N[C@@H](CC)C(=O)N[C@@H](CC(=O)O)C(=O)Nc1ccc2c(C)cc(=O)oc2c1` [compound 19] (HELM PEPTIDE1{[ac].R.R.R.R.R.R.R.R.R.D.[Nle].[Abu].D.[Cc1cc(=O)oc2cc(N[*:1])ccc12]}$$$$V2.0), the membrane lysis effect ([2]; Fig. S7B (confocal, 100 µM) and S8 (LDH release, 4 h, 10% serum)) was “membrane lysis effect”.

For “Ac-W-(cyclo-d)-MRGDM-NH2 (sidechain bridge or staple) [1d, peptide 1 Met bis-alkylated with linker d]”, the “regeneration of the parental linear peptide 1 (dealkylation)” value [4] was “time-dependent regeneration of the parental peptide 1”.

In the case of “FITC-βA-(cyclo-c)-MRRRM-NH2 (sidechain bridge or staple) [11c, peptide 11 cyclized using linker c]”, the “cellular uptake efficiency (flow cytometry) in the presence of serum” value ([5]; 10% fetal bovine serum, 5, 10, 20 µM, Fig. S5) is reported as “same tendency as in the absence of serum”, the “cellular uptake efficiency (flow cytometry)” value ([5]; FITC-labelled peptides 10 µM, 4 h, 37 °C, absence of serum, trypsin wash, FACS, Fig. 4C) is reported as “best uptake; also recorded: better cellular uptake than the thioether cyclic peptide” and the “cellular uptake efficiency (flow cytometry)” value [6] is reported as “best uptake”.

For “cyclo-i-Met-Asp-Nle-Met-Asp-AMC (sidechain bridge or staple) [17i, Met bis-alkylated peptide 17 with linker i]”, the “AMC fluorescence in cells (confocal) in the presence of serum” value ([7]; peptide 50 µM 4 h with 10% fetal bovine serum, GSH 10 mM 16 h, ABT-737 10 µM 1 h, Fig. S7A) was “weaker fluorescence intensity”, the “AMC fluorescence in cells (confocal, 405 nm excitation)” value ([7]; peptide 100 µM 4 h in FBS free medium, then 10 mM GSH 8, 16 or 24 h, then ABT-737 10 µM 1 h, Fig. 5E, S7B) was “lighted gradually” and the “AMC release / susceptibility to caspase-3 in vitro” value [3] was “not a suitable substrate for caspase-3”. The “caspase-3 activity (AMC release) in live cells” value [8] was “higher caspase-3 activity than the linear peptide 16, while lower than 19”, the “AMC release in cell lysate pretreated with pan caspase inhibitor FMK” value ([9]; U2OS lysate, FMK 100 µM) was “reduced significantly” and the “time-dependent AMC release in cell lysate” value ([9]; lysate of U2OS cells induced with ABT-737 (10 µM, 1 h), without FMK, triplicates) was “increased gradually during 24 h”.
